# System: ATF4 luciferase reporter in HEK293T cells
# Experiment: ATF4-Luc assay (ATF4 luciferase reporter, tunicamycin-treated HEK293T cells)
# Assay type: cell-based, human
# Details: Homo sapiens, HEK-293T; HEK293T cells carrying the ATF4 luciferase reporter, 1 μg/mL tunicamycin, 7 hours
row,Structure (SMILES),EC50 [nM]
1,"N#Cc1cc(OCC(=O)NC23CC(NC(=O)COc4ccc5c(c4)OC(F)(F)O5)(C2)C3)ccn1 [Compound 270, 2-[(2-cyanopyridin-4-yl)oxy]-N-(3-{2-[(2,2-difluoro-2H-1,3-benzodioxol-5-yl)oxy]acetamido}bicyclo[1.1.1]pentan-1-yl)acetamide]",250 to 500
2,"COc1ccc(OCC(=O)NC23CC(NC(=O)COc4ccc5c(c4)OC(F)(F)O5)(C2)C3)cn1 [Compound 271, 2-[(2,2-difluoro-2H-1,3-benzodioxol-5-yl)oxy]-N-(3-{2-[(6-methoxypyridin-3-yl)oxy]acetamido}bicyclo[1.1.1]pentan-1-yl)acetamide]",10 to 50
3,"O=C(COc1ccc(Cl)c(F)c1)NC12CCC(NC(=O)COc3ccc(Cl)c(F)c3)(CC1)C(=O)C2 [Compound 272, N,N′-(2-oxobicyclo[2.2.2]octane-1,4-diyl)bis[2-(4-chloro-3-fluorophenoxy)acetamide]]",< 10
4,"O=C(COc1ccc(Cl)c(F)c1)NC12CCC(NC(=O)COc3ccc(Cl)c(F)c3)(CC1)C(O)C2 (centres unmarked) [Compound 273, N,N′-(2-hydroxybicyclo[2.2.2]octane-1,4-diyl)bis[2-(4-chloro-3-fluorophenoxy)acetamide]]",< 10
5,"O=C(COc1ccc2c(c1)OC(F)(F)O2)NC12CC(NC(=O)COc3ccc4c(c3)OC(F)(F)O4)(C1)C2 [Compound 274, N,N′-(bicyclo[1.1.1]pentane-1,3-diyl)bis{2-[(2,2-difluoro-2H-1,3-benzodioxol-5-yl)oxy]acetamide}]",< 10
6,"COC(=O)c1cc(OCC(=O)NC23CC(NC(=O)COc4ccc5c(c4)OC(F)(F)O5)(C2)C3)ccc1Cl [Compound 275, methyl 2-chloro-5-{2-1(3-{2-[(2,2-difluoro-2H-1,3-benzodioxol-5-yl)oxy]acetamido}bicyclo[1.1.1]pentan-1-yl)aminol-2-oxoethoxy}benzoate]",500 to 2000
7,"O=C(COc1ccc(Cl)c(CO)c1)NC12CC(NC(=O)COc3ccc4c(c3)OC(F)(F)O4)(C1)C2 [Compound 276, 2-[4-chloro-3-(hydroxymethyl)phenoxy]-N-(3-{2-[(2,2-difluoro-2H-1,3-benzodioxol-5-yl)oxy]acetamido}bicyclo[1.1.1]pentan-1-yl)acetamide]",10 to 50
8,"N#Cc1cc(OCC(=O)NC23CC(NC(=O)COc4ccc(Cl)c(F)c4)(C2)C3)ccn1 [Compound 277, 2-(4-chloro-3-fluorophenoxy)-N-(3-{2-[(2-cyanopyridin-4-yl)oxy]acetamido}bicyclo[1.1.1]pentan-1-yl)acetamide]",250 to 500
9,"O=C(COc1ccc(S(F)(F)(F)(F)F)cc1)NC12CC(NC(=O)COc3ccc4c(c3)OC(F)(F)O4)(C1)C2 [Compound 278, 2-[(2,2-difluoro-2H-1,3-benzodioxol-5-yl)oxy]-N-(3-{2-[4-(pentafluoro-λ^6-sulfanyl)phenoxy]acetamido}bicyclo[1.1.1]pentan-1-yl)acetamide]",10 to 50
10,"O=C(COCc1ccc(OC(F)F)nc1)NC12CC(NC(=O)COc3ccc(Cl)c(F)c3)(C1)C2 [Compound 279, 2-(4-chloro-3-fluorophenoxy)-N-[3-(2-{[6-(difluoromethoxy)pyridin-3-yl]methoxy}acetamido)bicyclo[1.1.1]pentan-1-yl]acetamide]",250 to 500
11,"O=C(COCc1ccc(-n2cccn2)nc1)NC12CC(NC(=O)COc3ccc(Cl)c(F)c3)(C1)C2 [Compound 280, 2-(4-chloro-3-fluorophenoxy)-N-[3-(2-{[6-(1H-pyrazol-1-yl)pyridin-3-yl]methoxy}acetamido)bicyclo[1.1.1]pentan-1-yl]acetamide]",> 2000
12,"COc1ccc(COCC(=O)NC23CC(NC(=O)COc4ccc(Cl)c(F)c4)(C2)C3)cn1 [Compound 281, 2-(4-chloro-3-fluorophenoxy)-N-(3-{2-[(6-methoxypyridin-3-yl)methoxy]acetamido}bicyclo[1.1.1]pentan-1-yl)acetamide]",500 to 2000
13,"Cc1cc(COCC(=O)NC23CC(NC(=O)COc4ccc(Cl)c(F)c4)(C2)C3)cc(C)n1 [Compound 282, 2-(4-chloro-3-fluorophenoxy)-N-(3-{2-[(2,6-dimethylpyridin-4-yl)methoxy]acetamido}bicyclo[1.1.1]pentan-1-yl)acetamide]",> 2000
14,"N#Cc1ccc(COCC(=O)NC23CC(NC(=O)COc4ccc(Cl)c(F)c4)(C2)C3)cn1 [Compound 283, 2-(4-chloro-3-fluorophenoxy)-N-(3-{2-[(6-cyanopyridin-3-yl)methoxy]acetamido}bicyclo[1.1.1]pentan-1-yl)acetamide]",500 to 2000
15,"O=C(COCc1ccc(C(F)(F)F)nc1)NC12CC(NC(=O)COc3ccc(Cl)c(F)c3)(C1)C2 [Compound 284, 2-(4-chloro-3-fluorophenoxy)-N-[3-(2-{[6-(trifluoromethyl)pyridin-3-yl]methoxy}acetamido)bicyclo[1.1.1]pentan-1-yl]acetamide]",10 to 50
16,"O=C(COc1ccc(Cl)c(Cl)c1)NC12CC(NC(=O)COc3cnc(C4CC4)cn3)(C1)C2 [Compound 285, 2-[(5-cyclopropylpyrazin-2-yl)oxy]-N-{3-[2-(3,4-dichlorophenoxy)acetamido]-bicyclo[1.1.1]pentan-1-yl}acetamide]",50 to 250

row,Structure (SMILES),EC50 [nM]
1,"O=C(COc1ccc(Cl)c(F)c1)NC12CC(NCC(=O)c3ccc(Cl)c(Cl)c3)(C1)C2 [Compound 286, 2-(4-chloro-3-fluorophenoxy)-N-(3-{[2-(3,4-dichlorophenyl)-2-oxoethyl]amino}bicyclo[1.1.1]pentan-1-yl)acetamide]",50 to 250
2,"O=C(COc1ccc(Cl)c(Cl)c1)NC12CC(NCC(=O)c3ccc(Cl)cc3)(C1)C2 [Compound 287, N-(3-{[2-(4-chlorophenyl)-2-oxoethyl]amino}bicyclo[1.1.1]pentan-1-yl)-2-(3,4-dichlorophenoxy)acetamide]",50 to 250
3,"O=C(COc1ccc(Cl)c(Cl)c1)NC12CC(NCC(O)c3ccc(Cl)cc3)(C1)C2 (centres unmarked) [Compound 288, N-(3-{[2-(4-chlorophenyl)-2-hydroxyethyl]amino}bicyclo[1.1.1]pentan-1-yl)-2-(3,4-dichlorophenoxy)acetamide]",50 to 250
4,"O=C(COc1ccc(Cl)c(F)c1)NC12CC(NCC(=O)c3ccc(Cl)cc3)(C1)C2 [Compound 289, 2-(4-chloro-3-fluorophenoxy)-N-(3-{[2-(4-chlorophenyl)-2-oxoethyl]amino}bicyclo[1.1.1]pentan-1-yl)acetamide]",50 to 250
5,"O=C(COc1ccc(Cl)c(F)c1)NC12CC(NCC(O)c3ccc(Cl)cc3)(C1)C2 (centres unmarked) [Compound 290, 2-(4-chloro-3-fluorophenoxy)-N-(3-{[2-(4-chlorophenyl)-2-hydroxyethyl]amino}bicyclo[1.1.1]pentan-1-yl)acetamide]",500 to 2000
6,"O=C(COc1ccc(Cl)c(F)c1)NC12CC(NCC(=O)c3ccc(Cl)c(F)c3)(C1)C2 [Compound 291, 2-(4-chloro-3-fluorophenoxy)-N-(3-{[2-(4-chloro-3-fluorophenyl)-2-oxoethyl]amino}bicyclo[1.1.1]pentan-1-yl)acetamide]",250 to 500
7,"O=C(COc1ccc(Cl)c(F)c1)NC12CC(NCC(O)c3ccc(Cl)c(F)c3)(C1)C2 (centres unmarked) [Compound 292, 2-(4-chloro-3-fluorophenoxy)-N-(3-{[2-(4-chloro-3-fluorophenyl)-2-hydroxyethyl]amino}bicyclo[1.1.1]pentan-1-yl)acetamide]",500 to 2000
8,"O=C(COc1ccc(Cl)c(F)c1)NC12CC(NC(=O)CC(=O)c3ccc(Cl)cc3)(C1)C2 [Compound 293, N-{3-[2-(4-chloro-3-fluorophenoxy)acetamido]bicyclo[1.1.1]pentan-1-yl}-3-(4-chlorophenyl)-3-oxopropanamide]",250 to 500
9,"O=C(/C=C/c1ccc(Cl)cc1)NC12CC(NC(=O)COc3ccc(Cl)c(F)c3)(C1)C2 [Compound 294, (2E)-N-{3-[2-(4-chloro-3-fluorophenoxy)acetamido]bicyclo[1.1.1]pentan-1-yl}-3-(4-chlorophenyl)prop-2-enamide]",10 to 50
10,"Cc1ccc(OCC(=O)NC23CC(NC(=O)COc4ccc(Cl)c(Cl)c4)(C2)C3)cn1 [Compound 295, 2-(3,4-dichlorophenoxy)-N-(3-{2-[(6-methylpyridin-3-yl)oxy]acetamido}bicyclo[1.1.1]pentan-1-yl)acetamide]",50 to 250
11,"O=C(COc1cc(C(F)(F)F)nc(C(F)(F)F)c1)NC12CC(NC(=O)COc3ccc(Cl)c(F)c3)(C1)C2 [Compound 296, 2-{[2,6-bis(trifluoromethyl)pyridin-4-yl]oxy}-N-{3-[2-(4-chloro-3-fluorophenoxy)acetamido]bicyclo[1.1.1]pentan-1-yl}acetamide]",> 2000
12,"COC1CC2(NC(=O)COc3ccc(Cl)c(F)c3)CCC1(NC(=O)COc1ccc(Cl)c(F)c1)CC2 (centres unmarked) [Compound 299, N,N′-(2-methoxybicyclo[2.2.2]octane-1,4-diyl)bis[2-(4-chloro-3-fluorophenoxy)acetamide]]",10 to 50
13,"CN(C)C1CC2(NC(=O)COc3ccc(Cl)c(F)c3)CCC1(NC(=O)COc1ccc(Cl)c(F)c1)CC2 (centres unmarked) [Compound 300, N,N′-[2-(dimethylamino)bicyclo[2.2.2]octane-1,4-diyl]bis[2-(4-chloro-3-fluorophenoxy)acetamide]]",10 to 50
14,"O=C(CNC(=O)OCc1ccccc1)NC12CC(NC(=O)COc3ccc(Cl)c(F)c3)(C1)C2 [Compound 304, benzyl [2-({3-[2-(4-chloro-3-fluorophenoxy)acetamido]bicyclo[1.1.1]pentan-1-yl}amino)-2-oxoethyl]carbamate]",500 to 2000
15,"O=C(COc1ccc(Cl)c(F)c1)NC12CCC(NC(=O)COc3ccc4c(c3)OC(F)(F)O4)(CC1)C(O)C2 (centres unmarked) [Compound 305, 2-(4-chloro-3-fluorophenoxy)-N-(4-{2-[(2,2-difluoro-2H-1,3-benzodioxol-5-yl)oxy]acetamido}-3-hydroxybicyclo[2.2.2]octan-1-yl)acetamide]",< 10
16,"O=C(COc1ccc(Cl)c(F)c1)NC12CCC(NC(=O)COc3cncc(C(F)(F)F)c3)(CC1)C(O)C2 (centres unmarked) [Compound 306, 2-(4-chloro-3-fluorophenoxy)-N-[3-hydroxy-4-(2-{[5-(trifluoromethyl)pyridin-3-yl]oxy}acetamido)bicyclo[2.2.2]octan-1-yl]acetamide]",< 10
